Test results taken from patent US20010023252A1, “Novel compound” (SmithKline Beecham Plc, priority 1998, published 2001).

Assay: Aqueous solubility of the salt (stated in words)
Type: physicochemical
Details: water, compared with the hydrochloride salt

paroxetine methanesulfonate
aqueous solubility (in words): highly water soluble
aqueous solubility (in words) (listed as methanesulfonate salt of paroxetine): significantly more soluble than the hydrochloride salt
